In patent publication US5763435A, “Sulfate conjugates of ursodeoxycholic acid, and their beneficial use in inflammatory disorders” (priority 1995, dated 1998):

Assays:
[1] = test system: Principal Bile Acids in Colon; assay: Bile acid composition of colon after oral administration (GC-MS); type: in vivo, Sprague-Dawley rats
Experimental: (§1) Male Sprague-Dawley rats (Harlan Sprague-Dawley, Inc., Indianapolis, Ind.), weighing 210-290 g, were maintained on a 12-hour light-dark cycle and fed standard laboratory chow ad libitum for 3 days. The animals were then transferred to metabolic cages in which they were housed individually and fed the same diet. UDCA, UDCA 3-sulfate, UDCA 7-sulfate, and UDCA 3,7-disulfate were administered by gavage at a dose of 250 mg/day for 4 consecutive days. Each group comprised 3-6 rats. Body weights of the animals were measured each day. On day 5, the animals were killed by exsanguination under ether anesthesia. Plasma was collected and frozen at -20° C. The liver was removed, rinsed in normal saline, and flash-frozen in liquid nitrogen. Urine and feces were collected every 24 hours and frozen at -20° C. All animals received humane care in compliance with the "Guide for the Care and Use of Laboratory Animals" prepared by the National Academy of Sciences (National Institutes of Health publication no. 86-23, revised in 1985).
(§2) Intestinal contents were weighed and dissected into small pieces. In each group, feces (100 mg) from all animals were pooled on day 4 of the study and then ground into a fine paste. All samples were sonicated and sequentially refluxed in 80% methanol for 2 hours and chloroform/methanol (1:1) for 1 hour. Samples were taken to dryness, and the dried extracts were resuspended in 80% methanol (20 mL). Fractions of the methanolic extract (1/40 of intestinal contents and 1/20 of feces samples) were removed and the internal standard nordeoxycholic acid (10 μg) was added. This extract was diluted with 0.01 mol/L acetic acid (20 mL) and passed first through a column of Lipidex 1000 (bed size, 4×1 cm; Packard Instrument Co., Groningen, The Netherlands) and then through a Bond-Elut C18, cartridge (Analytichem, Harbor City, Calif.). Bile acids were recovered by elution of the Lipidex 1000 column and the Bond-Elut cartridge with methanol (20 mL and 5 mL, respectively), and the combined extracts were taken to dryness. Unconjugated bile acids were isolated and separated from neutral sterol and conjugated bile acids by lipophilic anion exchange chromatography on diethylaminohydroxypropyl Sephadex LH-20 (Lipidex-DEAP; Package Instrument Co.). Recovery of unconjugated bile acids was achieved by elution with 0.1 mol/L acetic acid in 72% ethanol (7 mL) followed by evaporation of the solvents. Total conjugated bile acids were recovered with 9 mL of 0.3 mol/L acetic acid in 72% ethanol, pH 9.6. Salts were removed by passage through a Bond-Elut C18 cartridge after addition of nordeoxycholic acid (10 μg), and conjugated bile acids were recovered by elution with 5 mL of methanol. Solvolysis was performed in a mixture of methanol (1 mL), distilled tetrahydrofuran (9 mL), and 1 mol/L trifluoracetic acid in dioxane (0.1 mL) and heated to 45° C for 2 hours. After solvolysis, unconjugated bile acids were isolated by chromatography on Lipidex-DEAP. Methyl ester derivatives were prepared by dissolving the sample in methanol (0.3 mL) and reacting with 2.7 mL of freshly distilled ethereal diazomethane. After evaporation of the reagents, the methyl ester derivatives were converted to trimethylsilyl ethers by the addition of […] of Tri-Sil reagent (Pierce Chemicals, Rockford, Ill.). A column of Lipidex 5000 (Packard Instrument Co.) was used to remove derivatizing reagents and to purify the sample.
GC-MS analysis was performed using a Finnigan 4635 mass spectrometer (Finnigan Inc., San Jose, Calif.) that housed an identical gas chromatography column operated under the same conditions. Electron ionization (70 eV) mass spectra were recorded over the mass range of 50-800 daltons by repetitive scanning of the eluting components. […]

[2] = test system: Principal Bile Acids in Jejunum; assay: Bile acid composition of jejunum after oral administration (GC-MS); type: in vivo, Sprague-Dawley rats; conditions: oral gavage 250 mg/day, 4 days, mean ± SEM; for UDCA mass in jejunum: 24 hours after final dose
Experimental: as §1, §2
Samples of liver (100 mg) were ground to a fine paste, and bile acids were extracted by reflux and passage through a column of Lipidex 1000 as described above for intestinal contents and feces. Group separation of bile acids, according to their mode of conjugation was achieved by lipophilic anion-exchange chromatography. […]

[3] = oral gavage 250 mg/day, 4 days, mean ± SEM

C[C@H](CCC(=O)O)[C@H]1CC[C@H]2[C@@H]3[C@@H](OS(=O)(=O)O)C[C@@H]4C[C@H](OS(=O)(=O)O)CC[C@]4(C)[C@H]3CC[C@]12C [UDCA-DS, ursodeoxycholic acid 3,7-disulfate]
Chenodeoxycholic acid mass in colon [1, 3]: 0.07 mg | Cholic acid mass in colon [1, 3]: 0.23 mg | Cholic acid percent of colonic bile acids [1, 3]: 26.3% | Deoxycholic acid mass in colon [1, 3]: 0.31 mg | Deoxycholic acid percent of colonic bile acids [1, 3]: 27.2% | Lithocholic acid mass in colon [1, 3]: 0.02 mg | Lithocholic acid percent of colonic bile acids [1, 3]: 1.8% | Total bile acid mass in colon [1, 3]: 1.22 mg | UDCA mass in colon [1, 3]: 0.20 mg | UDCA percent of colonic bile acids [1, 3]: 14.7% | Δ^22-UDCA percent of colonic bile acids [1, 3]: 0% | Δ^22-β-Muricholic acid mass in colon [1, 3]: 0.01 mg | Δ^22-ω-Muricholic acid mass in colon [1, 3]: 0.06 mg | α-Muricholic acid mass in colon [1, 3]: 0.03 mg | β-Muricholic acid mass in colon [1, 3]: 0.06 mg | ω-Muricholic acid mass in colon [1, 3]: 0.24 mg | Change in colonic deoxycholic / lithocholic acid (in words) ([1]; oral, vs control): substantial reductions in the mass and proportion of both deoxycholic acid and lithocholic acid | UDCA mass in jejunum ([2]; listed as UDCA 3,7-SULFATE): 0.21 mg | UDCA mass in jejunum ([2]; listed as UDCA 3,7-disulfate): 0.21 ± 0.07 mg | Chenodeoxycholic acid mass in jejunum [2]: 0.12 mg | Cholic acid mass in jejunum [2]: 6.78 mg | Cholic acid percent of jejunal bile acids [2]: 66.0% | Deoxycholic acid mass in jejunum [2]: 0.5 mg | Deoxycholic acid percent of jejunal bile acids [2]: 5.2% | Lithocholic acid percent of jejunal bile acids [2]: 0% | Total bile acid mass in jejunum [2]: 10.24 mg | UDCA percent of jejunal bile acids [2]: 2.0% | Δ^22-UDCA mass in jejunum [2]: 0.21 mg | Δ^22-UDCA percent of jejunal bile acids [2]: 2.1% | Δ^22-β-Muricholic acid mass in jejunum [2]: 0.34 mg | Δ^22-ω-Muricholic acid mass in jejunum [2]: 0.12 mg | β-Muricholic acid mass in jejunum [2]: 1.70 mg | ω-Muricholic acid mass in jejunum [2]: 0.24 mg
